What was measured:
RARα = target: T1, RARα (Homo sapiens, UniProt P10276); assay: RARE-luciferase reporter assay in transfected CV-1 cells (affinity to retinoic acid receptor), RARα; format: cell-based; details: treated 24 hours at final concentration 10^−4M, control group 1000
T1 construct: expressed in transfected cells; host or cells: CV-1 cells (ATCC)
T1 sequence (P10276 1-462): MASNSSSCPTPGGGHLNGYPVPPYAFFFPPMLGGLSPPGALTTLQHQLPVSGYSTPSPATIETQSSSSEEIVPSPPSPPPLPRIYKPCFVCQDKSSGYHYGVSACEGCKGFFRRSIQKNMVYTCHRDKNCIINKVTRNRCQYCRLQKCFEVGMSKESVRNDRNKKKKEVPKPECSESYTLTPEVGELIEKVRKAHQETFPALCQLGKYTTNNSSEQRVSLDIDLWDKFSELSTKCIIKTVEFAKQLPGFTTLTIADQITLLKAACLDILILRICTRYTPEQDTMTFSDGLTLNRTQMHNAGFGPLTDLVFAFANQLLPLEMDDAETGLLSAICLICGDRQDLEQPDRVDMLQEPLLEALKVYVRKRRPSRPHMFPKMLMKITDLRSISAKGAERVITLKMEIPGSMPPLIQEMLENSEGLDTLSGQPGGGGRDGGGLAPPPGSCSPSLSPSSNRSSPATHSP
From the text: This example illustrates affinities of hydroxamic acid derivatives obtained in Examples 1 to 55 to retinoic acid receptor, in comparison with retinol and retinoic acid.
(§1) Receptor-expression plasmid, pECE-RARα and pECE-RARγ were engineered by the prior method (Mol. Cell. Biol. 1996, 16, 1138-1149). RARE-tk-Luc, i.e. RARE reporter was obtained by inserting RARE fragment from b-RARE-tk-CAT into pGL3 luciferase basic vector. CV-1 cells were obtained from ATCC (American Type Culture Collection).
CV-1 cells were seeded into 96-well microtiter plate at 5,000 cells per well and cultured in DMEM (Dulbecco's Modified Eagle's Media) supplemented with 2.5% fetal bovine serum. 24 Hours later, the cells were transfected with 10 ng of pECE-RARα, long of pECE-RARγ, 100 ng of reporter plasmid and 100 ng of β-galactosidase-expression vector, using LipofectaminPlus (GIBCO BRL, grand island, N.Y.). 24 Hours post-transfection, the cells were treated for 24 hours with hydroxamic acid derivatives of Examples 1˜55 or retinol at a final concentration of 10^−4M or with retinoic acid at a final concentration of 10^−5M, which is 10 times lower concentration than those of the former.

rabbits = assay: Primary skin irritation test on animals (Draize P.I.I.); details: depilated back; for P.I.I. (Primary Irritation Index): 0.5 ml of 1% solution in 1,3-butylene glycol:ethanol 7:3, observed 24 or 72 hours later; for Evaluation (skin irritation): 1% solution, according to Draize's P.I.I.
RARγ = target: T2, RARγ (Homo sapiens, UniProt P13631); assay: RARE-luciferase reporter assay in transfected CV-1 cells (affinity to retinoic acid receptor), RARγ; format: cell-based; details: treated 24 hours at final concentration 10^−4M, control group 5000
T2 construct: expressed in transfected cells; host or cells: CV-1 cells (ATCC)
T2 sequence (P13631 1-454): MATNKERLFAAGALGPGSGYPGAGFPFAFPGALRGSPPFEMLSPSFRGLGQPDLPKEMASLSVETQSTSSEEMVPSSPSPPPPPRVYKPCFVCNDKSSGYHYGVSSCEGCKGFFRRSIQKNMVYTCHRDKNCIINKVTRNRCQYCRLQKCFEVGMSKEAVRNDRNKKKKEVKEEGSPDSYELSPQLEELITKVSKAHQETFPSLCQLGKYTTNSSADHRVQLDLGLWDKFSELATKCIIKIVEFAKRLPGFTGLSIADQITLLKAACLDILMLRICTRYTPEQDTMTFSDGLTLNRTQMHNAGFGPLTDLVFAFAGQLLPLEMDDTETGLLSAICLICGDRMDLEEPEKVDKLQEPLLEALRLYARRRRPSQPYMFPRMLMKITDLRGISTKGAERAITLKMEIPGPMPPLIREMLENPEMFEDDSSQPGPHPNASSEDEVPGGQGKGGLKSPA
Experimental: as §1
CV-1 cells were seeded into 96-well microtiter plate at 5,000 cells per well and cultured in DMEM (Dulbecco's Modified Eagle's Media) supplemented with 2.5% fetal bovine serum. 24 Hours later, the cells were transfected with 10 ng of pECE-RARα, long of pECE-RARγ, 100 ng of reporter plasmid and 100 ng of β-galactosidase-expression vector, using LipofectaminPlus (GIBCO BRL, grand island, N.Y.).

collagenase = assay: Inhibition of collagenase expression in human fibroblasts (ELISA kit); format: cell-based; details: 10^−4M, 24 hours, serum-free medium, relative to control group = 100
Experimental: Human fibroblasts were seeded into 96-well microtiter plate at 5,000 cells per well and then cultured to 90% of growth in DMEM (Dulbecco's Modified Eagle's Media) supplemented with 2.5% fetal bovine serum. Then, the fibroblastes were cultured in serum-free DMEM for 24 hours and treated for 24 hours with 10^−4M of hydroxamic acid derivatives of Examples 1˜55, retinol or retinoic acid in serum-free medium, and then the culture fluid was collected.
(§2) For each culture fluid, collagenase production was measured with collagenase kit (commercialized by AmershamPharmacia Biotech). Firstly, the culture fluid was added to 96-well plate spread with primary collagenase antibody and then antigen-antibody reaction was performed in an incubator for 3 hours. Later, chromophore-conjugated secondary antibody was added to the 96-well plate and then reacted for 15 minutes. Then, color former was added thereto, to induce development at room temperature for 15 minutes. 1M of sulfuric acid was added to stop the reaction. […] The color density depends on the progress of the reaction. The absorbance of the yellow 96-well plate was measured at 405 nm using absorptiometer. Collagenase expression was calculated by the following equation 1. Herein, the absorbance of the culture fluid collected from the medium with no material treated was used as a control. Collagenase expression (%)=(Absorbance of test group with said material treated/Absorbance of control group with no material treated)×100 [Equation 1]
Collagenase expression was evaluated as a relative value, in consideration that the value of control group with no material treated is 100.

elastase = assay: Inhibition of elastase expression in human fibroblasts (ELISA kit); format: cell-based; details: 10^−4M, 24 hours, serum-free medium, relative to control group = 100
Experimental: as §2, with “elastase” for “collagenase”, “Elastase” for “Collagenase”, “2.” for “1.”, “2]” for “1]”
Elastase expression was evaluated as a relative value, in consideration that the value of control group with no material treated is 100.

white guinea pigs = assay: Phototoxicity test (UVA irradiation); details: for Evaluation (phototoxicity): 1%(w/v) solution, UVA 15 J/cm^2; for Phototoxic index: 50 μl of 1%(w/v) solution, UVA 320~380 nm 15 J/cm^2, observed 24, 48 and 72 hours
procollagen type I = assay: Effect on collagen biosynthesis (procollagen type I ELISA) in human fibroblasts; format: cell-based; details: 10^−4M, 24 hours, serum-free medium, relative to control group = 100
Experimental: Human fibroblasts were seeded into 24-well plate at 1×10^5 cells per well and then cultured to 90% of growth.
For each supernatant, procollagen production was measured with procollagen type I ELISA kit.

| Compound | Luciferase activity RARα (RARα) | P.I.I. (Primary Irritation Index) (rabbits) | Evaluation (skin irritation) (rabbits) | Luciferase activity RARγ (RARγ) | Collagenase expression (%) (collagenase) | Elastase expression (%) (elastase) | Evaluation (phototoxicity) (white guinea pigs) | Phototoxic index (white guinea pigs) | Collagen biosynthesis (%) (procollagen type I) |
| --- | --- | --- | --- | --- | --- | --- | --- | --- | --- |
| O=C(NO)c1ccc(NC(=O)c2ccccc2)cc1 [Example 1, N-[4-(N-hydroxycarbamoyl)phenyl]benzamide] | 10000 | 0.375 | No irritation | 12000 | 78% | 79% | No phototoxicity (lower value than 0.5, criterion value to be estimated as no phototoxicity) | 0 | 105% |
| Cc1ccc(C(=O)Nc2ccc(C(=O)NO)cc2)cc1 [Example 2, N-[4-(N-hydroxycarbamoyl)phenyl][4-methylphenyl]carboxyamide] | 12000 | 0.345 | No irritation | 11200 | 68% | 78% | No phototoxicity (lower value than 0.5, criterion value to be estimated as no phototoxicity) | 0 | 118% |
| Cc1cccc(C(=O)Nc2ccc(C(=O)NO)cc2)c1 [Example 3, N-[4-(N-hydroxycarbamoyl)phenyl][3-methylphenyl]carboxyamide] | 11600 | 0.375 | No irritation | 10000 | 80% | 69% | No phototoxicity (lower value than 0.5, criterion value to be estimated as no phototoxicity) | 0 | 120% |
| CCc1ccc(C(=O)Nc2ccc(C(=O)NO)cc2)cc1 [Example 4, N-[4-(N-hydroxycarbamoyl)phenyl][4-ethylphenyl]carboxyamide] | 12000 | 0.350 | No irritation | 12300 | 78% | 70% | No phototoxicity (lower value than 0.5, criterion value to be estimated as no phototoxicity) | 0 | 119% |
| CCCc1ccc(C(=O)Nc2ccc(C(=O)NO)cc2)cc1 [Example 5, N-[4-(N-hydroxycarbamoyl)phenyl][4-propylphenyl]carboxyamide] | 18000 | 0.375 | No irritation | 11000 | 79% | 78% | No phototoxicity (lower value than 0.5, criterion value to be estimated as no phototoxicity) | 0 | 125% |
| CC(C)c1ccc(C(=O)Nc2ccc(C(=O)NO)cc2)cc1 [Example 6, N-[4-(N-hydroxycarbamoyl)phenyl][4-isopropylphenyl]carboxyamide] | 14500 | 0.315 | No irritation | 12300 | 85% | 79% | No phototoxicity (lower value than 0.5, criterion value to be estimated as no phototoxicity) | 0 | 124% |
| CCCCc1ccc(C(=O)Nc2ccc(C(=O)NO)cc2)cc1 [Example 7, N-[4-(N-hydroxycarbamoyl)phenyl][4-butylphenyl]carboxyamide] | 12000 | 0.312 | No irritation | 11700 | 84% | 77% | No phototoxicity (lower value than 0.5, criterion value to be estimated as no phototoxicity) | 0 | 109% |
| CN(O)C(=O)c1ccc(C(=O)NC23CC4CC(CC(C4)C2)C3)cc1 [Example 44, N-adamantyl [4-(N-hydroxy-N-methylcarbamoyl)phenyl]carboxyamide] | 23100 |  |  |  |  |  | No phototoxicity (lower value than 0.5, criterion value to be estimated as no phototoxicity) |  |  |
| CC1=C(/C=C/C(C)=C/C=C/C(C)=C/C(=O)O)C(C)(C)CCC1 [Retinoic acid, retinoic acid, reference compound] |  | 1.830 | Light irritation |  | 60% | 68% |  |  | 125% |
| CC1=C(/C=C/C(C)=C/C=C/C(C)=C/CO)C(C)(C)CCC1 [Retinol, retinol, reference compound] | 2500 |  |  | 6000 | 85% | 88% |  |  | 120% |

Source: patent US7282522B2, “Hydroxamic acid derivatives and the method for preparing thereof” (Amorepacific Corporation, priority 2003, dated 2007)
